Laboratory results: patent US5179091A, “Chalcones” (Adir et Compagnie, priority 1990, dated 1993)

Experiments:
rat brain homogenates [1] = experiment: Inhibition of spontaneous lipid peroxidation (thiobarbituric acid reacting substances); type: biochemical; conditions: concentration of 10^-5 M, 60 minutes at 37° C.
Method: A study of the capacity of the compounds of the invention to trap free OH. radicals was studied on rat brain homogenates on the one hand with respect to the spontaneous peroxidation of lipids, The rat brain homogenates are placed in the presence or absence of the test compounds for 60 minutes at 37° C. The intensity of lipid peroxidation in the presence and in the absence of the compounds of the invention is determined by the substances reacting with thiobarbituric acid, expressed in mmol of malondialdehyde, by a method derived from that of […], Biochem. Med. 1976, 15, 212-216).

rat brain homogenates [2] = experiment: Inhibition of lipid peroxidation induced by the Fe++/ascorbate system; type: biochemical; conditions: concentration of 10^-5 M, Fe++/ascorbate (10 μM/250 μM)
Method: A study of the capacity of the compounds of the invention to trap free OH. radicals was studied on rat brain homogenates on the other hand with respect to peroxidation induced by the Fe++/ascorbate (10 μM/250 μM) system. The rat brain homogenates are placed in the presence or absence of the test compounds for 60 minutes at 37° C. The intensity of lipid peroxidation in the presence and in the absence of the compounds of the invention is determined by the substances reacting with thiobarbituric acid, expressed in mmol of malondialdehyde, by a method derived from that of […], Biochem. Med. 1976, 15, 212-216). The methodology is identical, with the exception of the addition to the homogenate of the Fe++/ascorbate radical-inducing system.

lipoxygenase = biological target: T1, lipoxygenase (Homo sapiens, UniProt P09917); experiment: Inhibition of lipoxygenase activity, LTB4 measured by radioimmunoassay; type: cell-based; conditions: concentration of 10^-5 M, washed human polynuclear cells activated by calcium; read-out: inhibition of lipoxygenase action (LTB4 produced)
T1 construct: endogenous in cells
T1 sequence (P09917 1-674): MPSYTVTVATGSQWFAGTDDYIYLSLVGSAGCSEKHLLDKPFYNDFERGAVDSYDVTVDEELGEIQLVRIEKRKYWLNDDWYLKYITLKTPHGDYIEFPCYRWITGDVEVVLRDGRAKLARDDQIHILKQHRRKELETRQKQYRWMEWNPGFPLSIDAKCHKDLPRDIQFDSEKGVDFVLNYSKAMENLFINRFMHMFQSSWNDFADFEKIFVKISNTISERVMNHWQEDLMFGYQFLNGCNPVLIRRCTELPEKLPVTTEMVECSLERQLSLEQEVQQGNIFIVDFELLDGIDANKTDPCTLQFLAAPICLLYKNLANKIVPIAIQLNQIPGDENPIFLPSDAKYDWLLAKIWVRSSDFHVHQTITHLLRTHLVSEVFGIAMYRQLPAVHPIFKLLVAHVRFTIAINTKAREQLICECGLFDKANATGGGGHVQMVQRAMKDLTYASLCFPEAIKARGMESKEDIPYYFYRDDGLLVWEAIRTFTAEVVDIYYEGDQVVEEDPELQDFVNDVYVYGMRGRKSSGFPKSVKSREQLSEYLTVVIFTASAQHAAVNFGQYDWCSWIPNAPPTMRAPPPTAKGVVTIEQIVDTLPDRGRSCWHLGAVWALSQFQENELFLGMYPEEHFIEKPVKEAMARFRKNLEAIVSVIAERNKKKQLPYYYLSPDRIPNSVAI
Method: The lipoxygenase activity is measured using washed human polynuclear cells, in the presence and absence of the claimed compounds after activation by calcium (A 23/87). The leukotriene B4 (LTB4) produced is measured by radioimmunoassay (Gresele, P. et al. Biochem. Biophys. Res. Comm. 1986, 137, 334-342).

Human red cells = experiment: AAPH-induced hemolysis; type: cell-based; conditions: Erythrocyte, 0.5 h, concentration of 10^-5 M, 30 minutes at 37° C.
native LDL = experiment: Level of LDL oxidation by Cu++, oxidation products assayed by FPLC; type: biochemical; conditions: relative to probucol (i=1)
Method: Under these conditions, free radicals are generated by Cu++ in a medium containing native LDL in the presence or absence of the test compounds. The reaction is stopped by adding 2,6-di-tert-butyl-4-methylphenol and EDTA to the reaction medium and the oxidation products are assayed by FPLC.
D being the height of the peak of fraction 27/28 of the chromatogram; the sum of the oxidized fractions 27/28 and 31/32 is equal to 100.

[3] = Inhibition of formation of conjugated dienes formed by free-radical activity; type: biochemical; conditions: 10^-5 M concentration, linoleic acid emulsion, Fe2+/Fe3+ mixture
From the text: This methodology consists in generating free OH- radicals in an emulsion of linoleic acid, by means of a system consisting of an Fe^2+ /Fe^3+ mixture.

| inhibition at 10 µM (lipoxygenase) | Compound | inhibition of spontaneous peroxidation (rat brain homogenates [1]) | inhibition of induced peroxidation (rat brain homogenates [2]) | LDL oxidation: oxidized fraction 27/28 of the chromatogram (native LDL) | also measured |
| --- | --- | --- | --- | --- | --- |
|  | vitamin E [reference compound] | 18% | 6% |  |  |
| ~80% | Cn1c(=O)oc2ccc(C(=O)C=Cc3cc(C(C)(C)C)c(O)c(C(C)(C)C)c3)cc21 [Example 1, 5-(3',5'-di-tert-butyl-4'-hydroxycinnamo-yl)-3-methylbenzoxazolinone] |  |  |  |  |
|  | Cn1c(=O)sc2cc(C(=O)C=Cc3cc(C(C)(C)C)c(O)c(C(C)(C)C)c3)ccc21 [Example 4, 6-(3',5'-di-tert-butyl-4'-hydroxycinnamoyl)-3-methylbenzothiazolinone] |  | ~30% |  |  |
| 44% | CC(C)(Sc1cc(C(C)(C)C)c(O)c(C(C)(C)C)c1)Sc1cc(C(C)(C)C)c(O)c(C(C)(C)C)c1 [probucol, reference compound] | 37% | 27% |  | inhibition at 10 µM (Human red cells): 48% |
| ~60% | Cn1c(=O)oc2cc(C(=O)C=Cc3cc(C(C)(C)C)c(O)c(C(C)(C)C)c3)ccc21 [Example 5, 6-(3',5'-di-tert-butyl-4'-hydroxycinnamoyl)-3-methylbenzoxazolinone] |  |  |  |  |
|  | CC1C(=Cc2cc(C(C)(C)C)c(O)c(C(C)(C)C)c2)C(=O)c2cc3oc(=O)[nH]c3cc21 (stereo not drawn) [Example 33, 2,3-dihydro-5-methyl-6-(3',5'-di-tert-butyl-4'-hydroxybenzylidene)cyclopenta[f]benzoxa-zone-2,6-dione] | approximately 50% | ~50% | oxidized fraction 27/28 disappears |  |
|  | CC(C)(C)c1cc(C=CC(=O)c2ccc3c(c2)OCC(=O)N3)cc(C(C)(C)C)c1O [Example 7, 7-(3',54- -di-tert-butyl-4'-hydroxycinnamoyl)-1,4-benzoxazin-3-one] |  |  |  | inhibition of diene formation [3]: approximately 75% |
|  | CC1C(=Cc2cc(C(C)(C)C)c(O)c(C(C)(C)C)c2)C(=O)c2cc3c(cc21)oc(=O)n3C (stereo not drawn) [Example 29, 2,3-dihydro-3,7-dimethyl-6-(3',5'-di-tert-butyl-4'-hydroxybenzylidene)cyclopenta[f]benzoxazole-2,5-dione] |  |  | oxidized fraction 27/28 disappears |  |
|  | CC1CC(=Cc2cc(C(C)(C)C)c(O)c(C(C)(C)C)c2)C(=O)c2cc3c(cc21)oc(=O)n3C (stereo not drawn) [Example 28, 2,3-dihydro-3,8-dimethyl-6-(3',5'-di-tert-butyl-4'-hydroxybenzylidene)cyclohexa[f]benzoxazone-2,5-dione] |  |  | oxidized fraction 27/28 disappears |  |
|  | Cn1c(=O)oc2cc3c(cc21)CC(=Cc1cc(C(C)(C)C)c(O)c(C(C)(C)C)c1)C3=O [Example 40, 2,3-dihydro-3-methyl-2,7-dioxo-6-(3',5'-di-tert-butyl-4'-hydroxybenzylidene)cyclopenta[f]benzoxazole-2,7-dione] | approximately 50% |  |  |  |
|  | CC1C(=Cc2cc(C(C)(C)C)c(O)c(C(C)(C)C)c2)C(=O)c2cc3oc(=O)n(C)c3cc21 (stereo not drawn) [Example 27, 2,3-dihydro-3,5-dimethyl-6-(3',5'-di-tert-butyl-4'-hydroxybenzylidene)cyclopenta[f]benzoxazone-2,7-dione] |  |  | oxidized fraction 27/28 disappears |  |
| ~60% | Cn1c(=O)oc2cc3c(cc21)C(c1ccccc1)C(=Cc1cc(C(C)(C)C)c(O)c(C(C)(C)C)c1)C3=O (stereo not drawn) [Example 36, 2,3-dihydro-3-methyl-5-phenyl-6-(3',5'-di-tert-butyl-4'-hydroxybenzylidene)cyclopenta[f]benzoxazole-2,7-dione] | approximately 50% | ~50% | oxidized fraction 27/28 disappears | inhibition of diene formation [3]: approximately 50% |
|  | CC(C)(C)c1cc(C=CC(=O)c2ccc3[nH]c(=O)oc3c2)cc(C(C)(C)C)c1O [Example 6, 6-(3',540-di-tert-butyl-4'-hydroxycinnamoyl)benzoxazolinone] |  |  |  | inhibition of diene formation [3]: approximately 75% |
| ~60% | CC(C)(C)c1cc(C=C2C(=O)c3cc4oc(=O)[nH]c4cc3C2c2ccccc2)cc(C(C)(C)C)c1O (stereo not drawn) [Example 35, 2,3-dihydro-5-phenyl-6-(3',5'-di-tert-butyl-4'-hydroxybenzylidene)cyclopenta[f]benzoxazole-2,7-dione] | approximately 50% | ~50% | oxidized fraction 27/28 disappears |  |
